From patent US20100061982A1, “3-SUBSTITUTED-1H-INDOLE, 3-SUBSTITUTED-1H-PYRROLO[2,3-B]PYRIDINE AND 3-SUBSTITUTED-1H-PYRROLO[3,2-B]PYRIDINE COMPOUNDS, THEIR USE AS MTOR KINASE AND PI3 KINASE INHIBITORS, AND THEIR SYNTHESES” (priority 2008, published 2010)
pIC50: −log10 of the molar value. Values after ≈ are worked out from the molar mass of the structure shown. Read-outs that look alike come from different tables or passages of the source.

Key:
[1] = tested on: acute lymphoblastic leukemia; settings: in vivo; cited from earlier work
PI3K alpha = PI3K alpha (Homo sapiens, UniProt P42336); experiment: PI3K-alpha Fluorescence Polarization Assay; type: biochemical
mTOR [2] = molecular target: T1, mTOR (Homo sapiens, UniProt P42345); experiment: mTOR Enzyme Assay (DELFIA, purified enzyme); type: biochemical; design: FLAG; settings: read-out: mTOR Mean IC50
physchem = settings: pH 7.4, aqueous buffer
[3] = PAMPA permeability pH 7.4
[4] = CACO2 permeability a-b/b-a; type: in vitro ADME; settings: human, Caco-2
[5] = Microsome Stability (15 min), human; type: in vitro ADME; settings: microsomes, Phase I (NADPH), read-out: Microsome Stability (15 min) T ½ Phase I human
[6] = Microsome Stability (15 min), nude mouse; type: in vitro ADME; settings: microsomes, Phase I (NADPH), read-out: Microsome Stability (15 min) T ½ Phase I nude mouse
[7] = Buffer Stability (37° C.)
[8] = Plasma Stability (37° C.), rat
[9] = Plasma Stability (37° C.), nude mouse
[10] = Microsome Stability (15 min), rat; type: in vitro ADME; settings: microsomes, Phase I (NADPH), read-out: Microsome Stability (15 min) T ½ Phase I rat
[11] = In vivo blood/plasma and tumor levels of prodrug and metabolites after 50 mg, kg po; settings: 50 mg
[12] = tested on: human tumor xenograft models; settings: cited from earlier work
mTOR [13] = molecular target: T1, mTOR; settings: read-out: mTOR IC50; mTOR complexes / mTOR enzymes; cited from earlier work

Sequence of PI3K alpha (P42336 whole entry, species assumed): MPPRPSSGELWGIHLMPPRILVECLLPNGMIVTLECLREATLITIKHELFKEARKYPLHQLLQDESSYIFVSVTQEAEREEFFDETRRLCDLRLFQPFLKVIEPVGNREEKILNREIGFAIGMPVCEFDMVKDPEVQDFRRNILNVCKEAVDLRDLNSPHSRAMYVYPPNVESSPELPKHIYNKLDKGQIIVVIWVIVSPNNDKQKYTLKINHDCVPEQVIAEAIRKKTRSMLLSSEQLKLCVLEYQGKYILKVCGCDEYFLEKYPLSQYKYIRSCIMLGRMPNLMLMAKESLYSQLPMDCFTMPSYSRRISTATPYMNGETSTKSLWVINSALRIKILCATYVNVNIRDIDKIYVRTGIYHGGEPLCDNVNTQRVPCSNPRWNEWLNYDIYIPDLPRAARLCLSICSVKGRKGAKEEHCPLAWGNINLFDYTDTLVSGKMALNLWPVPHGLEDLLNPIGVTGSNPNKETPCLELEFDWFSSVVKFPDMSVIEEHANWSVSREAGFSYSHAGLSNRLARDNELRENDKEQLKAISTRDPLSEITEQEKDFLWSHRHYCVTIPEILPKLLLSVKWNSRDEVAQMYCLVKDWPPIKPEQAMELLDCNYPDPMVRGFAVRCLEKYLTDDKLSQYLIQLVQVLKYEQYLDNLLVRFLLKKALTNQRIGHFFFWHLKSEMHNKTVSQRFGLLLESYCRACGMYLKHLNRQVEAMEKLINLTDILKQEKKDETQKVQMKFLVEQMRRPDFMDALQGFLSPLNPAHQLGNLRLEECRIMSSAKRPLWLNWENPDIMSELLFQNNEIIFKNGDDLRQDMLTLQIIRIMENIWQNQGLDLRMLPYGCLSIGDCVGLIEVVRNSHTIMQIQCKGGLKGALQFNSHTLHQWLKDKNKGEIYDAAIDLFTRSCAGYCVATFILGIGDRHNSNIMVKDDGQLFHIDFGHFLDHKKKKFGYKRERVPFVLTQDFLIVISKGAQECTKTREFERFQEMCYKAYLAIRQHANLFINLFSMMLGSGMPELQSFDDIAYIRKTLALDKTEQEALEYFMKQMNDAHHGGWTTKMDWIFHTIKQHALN
Sequence of PI3K alpha (P27986 whole entry partner, species assumed): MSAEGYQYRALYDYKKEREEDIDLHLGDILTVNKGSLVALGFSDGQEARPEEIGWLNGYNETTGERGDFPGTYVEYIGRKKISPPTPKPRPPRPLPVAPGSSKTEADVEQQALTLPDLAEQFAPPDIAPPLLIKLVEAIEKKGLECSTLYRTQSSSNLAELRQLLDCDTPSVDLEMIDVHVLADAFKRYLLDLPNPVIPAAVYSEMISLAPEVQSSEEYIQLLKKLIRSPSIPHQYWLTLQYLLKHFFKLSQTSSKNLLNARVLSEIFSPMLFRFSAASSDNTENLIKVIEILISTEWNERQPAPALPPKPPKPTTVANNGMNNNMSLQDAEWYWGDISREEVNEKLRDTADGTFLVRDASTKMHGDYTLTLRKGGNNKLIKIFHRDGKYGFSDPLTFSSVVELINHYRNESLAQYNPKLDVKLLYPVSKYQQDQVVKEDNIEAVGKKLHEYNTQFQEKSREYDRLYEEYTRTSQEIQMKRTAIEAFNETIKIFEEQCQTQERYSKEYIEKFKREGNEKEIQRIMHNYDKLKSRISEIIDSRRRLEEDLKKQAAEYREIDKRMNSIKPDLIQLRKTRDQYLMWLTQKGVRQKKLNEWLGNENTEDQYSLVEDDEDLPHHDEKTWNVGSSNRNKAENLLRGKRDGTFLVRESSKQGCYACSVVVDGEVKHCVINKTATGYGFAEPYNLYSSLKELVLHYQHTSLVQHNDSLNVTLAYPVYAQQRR

CO[C@H]1C[C@@H]2CC[C@@H](C)[C@@](O)(O2)C(=O)C(=O)N2CCCC[C@H]2C(=O)O[C@H]([C@H](C)C[C@@H]2CC[C@@H](OC(=O)C(C)(CO)CO)[C@H](OC)C2)CC(=O)[C@H](C)/C=C(\C)[C@@H](O)[C@@H](OC)C(=O)[C@H](C)C[C@H](C)/C=C/C=C/C=C/1C [Torisel]
activity in NOS/SCID xenograft mouse model of acute lymphoblastic leukemia [1]: active

COc1ccc2[nH]c(-c3ccccc3)c(/C=C3\Oc4cc(OP(=O)(O)O)cc(OP(=O)(O)O)c4C3=O)c2c1 [Example 38, (2Z)-2-[(5-methoxy-2-phenyl-1H-indol-3-yl)methylene]-3-oxo-2,3-dihydro-1-benzofuran-4,6-diyl bis[dihydrogen (phosphate)]]
pIC50 (PI3K alpha; read-out: PI3K alpha Mean IC50): 6.05 | pIC50 (mTOR [2]): 6.01 | solubility (physchem): > 100 µg/mL | PAMPA Pe [3]: 0.01 10e−6 cm/s

CN(C)C(=O)Oc1cc(OC(=O)N(C)C)c2c(c1)O/C(=C\c1cn(C)c3cccc(-c4ccccc4)c13)C2=O [Example 48, (2Z)-2-[(1-methyl-4-phenyl-1H-indol-3-yl)methylene]-3-oxo-2,3-dihydro-1-benzofuran-4,6-diyl bis(dimethylcarbamate)]
pIC50 (PI3K alpha): < 5.00 | Papp A→B ([4]; a − b (first value of cell), read-out: CACO2 Pe a − b): 0.5 ×10⁻⁶ cm/s | Papp B→A ([4]; b − a (second value of cell), read-out: CACO2 Pe b − a): 0.5 ×10⁻⁶ cm/s | half-life [5]: 25 min | half-life [6]: 14 min | pIC50 (mTOR [2]): 5.50 | PAMPA Pe [3]: Undetected | Buffer Stability (37° C.) % Remaining (at 16-23 hours) SGF [7]: 100% | Buffer Stability (37° C.) % Remaining (at 16-23 hours) SIF [7]: 100% | Buffer Stability (37° C.) % Remaining (at 16-23 hours) pH 1 [7]: 100% | Buffer Stability (37° C.) % Remaining (at 16-23 hours) pH 4.5 [7]: 100% | Buffer Stability (37° C.) % Remaining (at 16-23 hours) pH 6.6 [7]: 100% | Buffer Stability (37° C.) % Remaining (at 16-23 hours) pH 7.4 [7]: 100% | Buffer Stability (37° C.) % Remaining (at 16-23 hours) pH 9 [7]: 100% | Plasma Stability (37° C.) % Remaining (3-3.5 hours) rat [8]: >100% | Plasma Stability (37° C.) % Remaining (3-3.5 hours) nude mouse [9]: 80%

COc1ccc2[nH]c(-c3ccccc3)c(/C=C3\Oc4cc(OC(=O)N(c5ccccc5)c5ccccc5)cc(OC(=O)N(c5ccccc5)c5ccccc5)c4C3=O)c2c1 [Example 11, (2Z)-2-[(5-methoxy-2-phenyl-1H-indol-3-yl)methylene]-3-oxo-2,3-dihydro-1-benzofuran-4,6-diyl bis(diphenylcarbamate)]
pIC50 (PI3K alpha; read-out: PI3K alpha Mean IC50): < 5.30 | half-life [5]: 23 min | half-life [10]: > 30 min | solubility (physchem): 1 µg/mL (≈ 1.27 µM) | PAMPA Pe [3]: 1.14 10e−6 cm/s | Buffer Stability (37° C.) % Remaining (at 16-23 hours) SGF [7]: 100% | Buffer Stability (37° C.) % Remaining (at 16-23 hours) SIF [7]: 98% | Buffer Stability (37° C.) % Remaining (at 16-23 hours) pH 1 [7]: 99% | Buffer Stability (37° C.) % Remaining (at 16-23 hours) pH 4.5 [7]: 103% | Buffer Stability (37° C.) % Remaining (at 16-23 hours) pH 6.6 [7]: 100% | Buffer Stability (37° C.) % Remaining (at 16-23 hours) pH 7.4 [7]: 100% | Buffer Stability (37° C.) % Remaining (at 16-23 hours) pH 9 [7]: 89% | Plasma Stability (37° C.) % Remaining (3-3.5 hours) rat [8]: 95% | Plasma Stability (37° C.) % Remaining (3-3.5 hours) nude mouse [9]: 85% | plasma prodrug concentration ([11]; 0.5 h): bql, bql | plasma prodrug concentration ([11]; 2 h): bql, bql

Cn1c(=O)n(-c2ccc(C(C)(C)C#N)cc2)c2c3cc(-c4cnc5ccccc5c4)ccc3ncc21 [NVP-BEZ-235, 2-methyl-2-(4-(3-methyl-2-oxo-8-(quinolin-3-yl)-2,3-dihydro-1H-imidazo[4,5-c]quinolin-1-yl)phenyl)propanenitrile]
activity in human tumor xenograft models ([12]; prostrate (PC-3) and glioblastoma (U-87)): demonstrated activity

COc1ccc2[nH]c(-c3ccccc3)c(/C=C3\Oc4cc(OP(=O)(O)O)ccc4C3=O)c2c1 [Example 27, (2Z)-2-[(5-methoxy-2-phenyl-1H-indol-3-yl)methylene]-3-oxo-2,3-dihydro-1-benzofuran-6-yl dihydrogen phosphate]
pIC50 (PI3K alpha; read-out: PI3K alpha Mean IC50): 6.91 | half-life [10]: 19 min | pIC50 (mTOR [2]): 5.61 | solubility (physchem): 65 µg/mL | PAMPA Pe [3]: 0 10e−6 cm/s

FC(F)c1nc2ccccc2n1-c1nc(N2CCOCC2)nc(N2CCOCC2)n1 [ZSTK474, 2-(2-difluoromethylbenzoimidazol-1-yl)-4,6-dimorpholino-1,3,5-triazine]
tumor growth in mouse human xenograft cancer models ([12]; chronic oral administration, 400 mg/kg, A549, PC-3, WiDr): completely inhibited growth | pIC50 (mTOR [13]): < 5.00

Oc1cccc(-c2nc(N3CCOCC3)c3oc4ncccc4c3n2)c1 [PI103, 3-(4-(4-morpholinyl)pyrido[3′,′: 4,5]furo[3,2-d]pyrimidin-2-yl)phenol]
activity in human tumor xenograft models ([12]; I.P. dosing in mice, U87MG, PC3, MDA-MB-468, MDA-MB-435, HCT 116, SKOV3, IGROV-1): demonstrated activity
